# Data reported in US20100203175A1, “DEGLYCATION OF AGEs” (BASF BEAUTY CARE SOLUTIONS FRANCE S.A.S., priority 2007, published 2010).
# Molecular target: AGEs (bovine serum albumin (BSA) incubated with a reducing sugar) (Bos taurus, UniProt P02769)
# Experiment: Reversion of the Maillard reaction: deglycation of AGEs prepared from bovine serum albumin and glucose, fluorescence read-out
# Type: biochemical
# Conditions: characterized molecules, in particular at 1×10^−1% in water or DMSO; about 50° C., 3 weeks; fluorescence with active principle versus positive control (15 mM aminoguanidine)
# Protocol: The preparation of a solution containing a protein and a reducing sugar was carried out extemporaneously as follows: a solution of bovine serum albumin (BSA) at a concentration between 1.5 μM and 1.5M, preferably between 15 μM and 500 μM was incubated with a solution of a reducing sugar such as glucose, fructose, etc., preferably with glucose at a concentration between 0.1M and 10M and preferably between 0.5M and 5M.
# The incubation was maintained between 1 and 5 weeks, and preferably for 3 weeks.
# The measure of inhibition of the AGEs was carried out by measuring the fluorescence (excitation wavelength between 350 and 375 nm, preferably at 355 nm; emission wavelength between 420 and 450 nm, preferably at 430 nm). The reversion of the Maillard reaction was calculated by comparing the fluorescence of AGEs set at 100% (maximum fluorescence) with the fluorescence of AGEs+active agent tested.
# The preparation of a protein/reducing sugar solution was carried out according to the method described in Example 1 (paragraph 1).
# The preparation of a solution of protein/reducing sugar was carried out according to the method described in Example 1 (paragraph 1). […]
# Sequence of AGEs (bovine serum albumin (BSA) incubated with a reducing sugar) (P02769 25-607): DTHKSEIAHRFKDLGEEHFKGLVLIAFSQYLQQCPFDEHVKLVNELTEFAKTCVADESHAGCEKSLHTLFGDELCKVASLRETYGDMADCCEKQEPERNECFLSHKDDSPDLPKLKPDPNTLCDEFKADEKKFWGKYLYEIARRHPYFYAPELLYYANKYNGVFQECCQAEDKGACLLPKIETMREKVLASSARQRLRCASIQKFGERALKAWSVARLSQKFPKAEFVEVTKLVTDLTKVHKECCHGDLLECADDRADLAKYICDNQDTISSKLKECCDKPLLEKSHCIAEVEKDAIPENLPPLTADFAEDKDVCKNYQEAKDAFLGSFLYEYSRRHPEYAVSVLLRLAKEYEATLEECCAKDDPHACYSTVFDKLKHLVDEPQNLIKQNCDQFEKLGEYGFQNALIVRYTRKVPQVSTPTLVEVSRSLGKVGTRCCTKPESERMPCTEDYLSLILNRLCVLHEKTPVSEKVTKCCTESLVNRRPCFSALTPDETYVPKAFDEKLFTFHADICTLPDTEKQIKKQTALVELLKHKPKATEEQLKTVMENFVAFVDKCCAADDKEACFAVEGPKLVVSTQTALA
row,% deglycation [%],Structure (SMILES)
1,100,"Oc1cc(O)c2c(c1)O[C@@H](c1ccc(O)c(O)c1)[C@H](O)C2 (relative stereo) [trans-3,3′,4′,5,7-Pentahydroxyflavane]"
2,100,"Oc1cc(O)cc(O)c1 [1,3,5-Trihydroxybenzene (phloroglucinol), 1,3,5-Trihydroxybenzene]"
3,97,O=c1cc(CO)occ1O [2-Hydroxymethyl-5-hydroxy-γ-pyrone]
4,88,"O=C(O)C=Cc1ccc(O)c(O)c1 [3,4-Dihydroxycinnamic acid]"
5,100,"O=C(O)Cc1ccc(O)c(O)c1 [3,4-Dihydroxyphenylacetic acid (DOPAC), 3,4-Dihydroxyphenylacetic acid]"
6,100,"COc1cc(C=CC(=O)O)cc(OC)c1O [3,5-Dimethoxy-4-hydroxycinnamic acid]"
7,100,"Cc1c(C)c2c(c(C)c1O)CCC(C)(C(=O)O)O2 (centres unmarked) [6-Hydroxy-2,5,7,8-tetramethylchromane-2-carboxylic acid]"
8,100,"Cc1cn2c(=O)c3ccccc3nc2n2c(=O)c3ccccc3nc12 [6-Methyl-5,7a,13,13b-tetraazapentaphene-8,14-dione]"
9,100,"Cc1cc(C)c2c(c1O)C(=O)OC2 [7-Hydroxy-4,6-dimethyl phthalide]"
10,100,"Oc1ccc2cc[nH]c2c1 [Indole alcohol amine II, 6-Hydroxyindole]"
11,100,CC(Cc1ccc(O)c(O)c1)C(C)Cc1ccc(O)c(O)c1 (centres unmarked) [Nordihydroguaiaretic acid]
12,100,O=C1Cc2ccccc2N1 [Oxindole]

row,Structure (SMILES),% deglycation [%]
1,Nc1ccc(O)cc1 [4-Aminophenol],100
2,CNC(=O)Oc1ccc2c(c1)[C@]1(C)CCN(C)[C@@H]1N2C [Physostigmine],87
